Source: patent US8916498B2, “Safening 6-(trisubstituted phenyl)-4-amino-2-pyridinecarboxylate herbicide injury on direct seeded and transplanted paddy rice” (priority 2008, dated 2014)
Values joined by “and” are separate entries in the source; they are usually repeats but may differ in a detail not shown here. Identical values can stand only once. Like-named read-outs stand apart in the source and are kept apart here.

Columns and labels:
[1] = system: direct seeded rice
[2] = system: transplanted paddy rice; assay: Safening activity of herbicide mixtures in transplanted paddy rice; format: in vivo, Oryza sativa
Procedure: (§1) The prepared mud was dispensed in 250 mL aliquots into 480 mL non-perforated plastic pots with a surface area of 91.6 cm^2 leaving a headspace of 3 cm in each pot. Rice seeds were planted in Sun Gro MetroMix 306 planting mixture, which typically has a pH of 6.0 to 6.8 and an organic matter content of about 30 percent, in plastic plug trays. Seedlings at the second or third leaf stage of growth were transplanted into 650 mL of mud contained in 960 mL non-perforated plastic pots with a surface area of 91.6 cm^2 four days prior to herbicide application. The paddy was created by filling the 3 cm headspace of the pots with water. […] Nutrients were added as Osmocote (17:6:10, Nitrogen:Phosphorus:Potassium (N:P:K)+minor nutrients) at 2 grams (g) per cup.
(§2) For technical grade compounds and safeners, a weighed amount, determined by the highest rate to be tested, was placed in an individual 120 mL glass vial and was dissolved in 20 mL of acetone to obtain concentrated stock solutions. […] The concentrated stock solutions obtained were diluted with 20 mL of acetone. Applications were made by injecting an appropriate amount of the stock solution into the aqueous layer of the paddy. […] All treated plant material received the same concentration of acetone and crop oil concentrate.
Forms of compound 1 were applied on an acid equivalent basis.

[3] = system: weed test plant species; assay: Herbicidal safening in transplanted paddy rice, visual injury on weeds; format: in vivo; settings: after 3 weeks; for Visual Injury (%) SCPJU Obs: Scirpus juncoides; for Visual Injury (%) CYPDI Obs: Cyperus difformis; for Visual Injury (%) MOOVA Obs: Monochoria vaginalis
Procedure: (§3) Evaluation of Herbicidal Safening in Transplanted Paddy Rice
as §1, §2

[4] = system: transplanted paddy rice; assay: Herbicidal safening in transplanted paddy rice, visual injury; format: in vivo, Oryza sativa; settings: after 3 weeks
Procedure: as §3, §1, §2

[5] = system: ECHCO; assay: Postemergence herbicidal safening in direct seeded rice, visual injury on weed; format: in vivo; settings: alone, after 3 weeks
[6] = system: CYPDI; assay: as above; format: in vivo; settings: alone, after 3 weeks
[7] = system: ORYSA (rice); assay: Postemergence herbicidal safening in direct seeded rice, visual injury; settings: for Visual Injury (%) ‘Lemont’ ORYSA Obs / ORYSA Visual Injury (%) ‘Cheniere’ Obs / ORYSA Visual Injury (%) ‘Clearfield’ Obs / ORYSA Visual Injury (%) ‘Cocodrie’ Obs / ORYSA Visual Injury (%) ‘Lemont’ Obs / ORYSA Visual Injury (%) ‘M202’ Obs / ORYSA Visual Injury (%) ‘Wells’ Obs: alone; for ORYSA Visual Injury (%) ‘Cheniere’ Obs / ORYSA Visual Injury (%) ‘Clearfield’ Obs / ORYSA Visual Injury (%) ‘Cocodrie’ Obs / ORYSA Visual Injury (%) ‘Lemont’ Obs / ORYSA Visual Injury (%) ‘M202’ Obs / ORYSA Visual Injury (%) ‘Wells’ Obs: after 3 weeks (Table 14)
Text: A=observed efficacy of active ingredient A at the same concentration as used in the mixture.
B=observed efficacy of active ingredient B at the same concentration as used in the mixture.

[8] = system: SEBEX; assay: Postemergence herbicidal safening in direct seeded rice, visual injury on weed; format: in vivo; settings: alone, after 3 weeks

Compound: COc1cc(OC)nc(Oc2cccc(Oc3nc(OC)cc(OC)n3)c2C(=O)O)n1 [Bispyribac sodium]
- ORYSA Visual Injury (%) ‘M202’ Obs ([1]; partner 28 g/ha alone): 15%
- ORYSA Visual Injury (%) ‘Wells’ Obs ([1]; partner 28 g/ha alone): 20%

Compound: CS(=O)(=O)c1ccc(C(=O)C2C(=O)CCCC2=O)c(Cl)c1 [Sulcotrione]
- ORYSA Visual Injury (%) ‘Wells’ Obs ([1]; partner 280 g/ha alone): 99%
- Visual Injury (%) ‘M202’ ORYSA Obs ([2]; partner 280 g/ha alone): 10%

Compound: CCN(CC)CC.COc1c(Cl)ccc(-c2cc(N)c(Cl)c(C(=O)O)n2)c1F [Compound 1 TEA Salt]
- Visual Injury (%) SCPJU Obs ([3]; herbicide 70 g ae/ha alone): 100%
- Visual Injury (%) SCPJU Obs ([3]; herbicide 140 g ae/ha alone): 100%
- Visual Injury (%) ECHCG Obs ([3]; herbicide 70 g ae/ha alone): 99%
- Visual Injury (%) ECHCG Obs ([3]; herbicide 140 g ae/ha alone): 100%
- Visual Injury (%) ‘M202’ ORYSA Obs ([4]; herbicide 70 g ae/ha alone): 65%
- ‘M202’ ORYSA Visual Injury (%) Obs ([4]; herbicide 70 g ae/ha alone): 60%
- Visual Injury (%) ‘M202’ ORYSA Obs ([4]; herbicide 140 g ae/ha alone): 70%
- ‘M202’ ORYSA Visual Injury (%) Obs ([4]; herbicide 140 g ae/ha alone): 85%
- Visual Injury (%) ‘M202’ ORYSA Obs ([2]; compound 35 g/ha alone): 20%
- Visual Injury (%) ‘M202’ ORYSA Obs ([2]; compound 70 g/ha alone): 35% and 50%

Compound: CCCCCC(C)OC(=O)COc1ccc(Cl)c2cccnc12 (stereo not drawn) [Cloquintocet-mexyl]
- Visual Injury (%) ECHCO Obs ([5]; 35 g ai/ha): 0%
- Visual Injury (%) ECHCO Obs ([5]; 70 g ai/ha): 0%
- Visual Injury (%) ECHCO Obs ([5]; 140 g ai/ha): 0%
- Visual Injury (%) ECHCO Obs ([5]; 280 g ae/ha): 0%
- Visual Injury (%) ECHCO Obs ([5]; 280 g ai/ha): 0%
- Visual Injury (%) CYPDI Obs ([6]; 35 g ai/ha): 0%
- Visual Injury (%) CYPDI Obs ([6]; 70 g ai/ha): 0%
- Visual Injury (%) CYPDI Obs ([6]; 140 g ai/ha): 0%
- Visual Injury (%) CYPDI Obs ([6]; 280 g ae/ha): 0%
- Visual Injury (%) CYPDI Obs ([6]; 280 g ai/ha): 0%
- Visual Injury (%) CYPDI Obs ([3]; safener 70 g ai/ha alone): 0%
- Visual Injury (%) CYPDI Obs ([3]; safener 140 g ai/ha alone): 0%
- Visual Injury (%) CYPDI Obs ([3]; safener 280 g ai/ha alone): 0%
- Visual Injury (%) MOOVA Obs ([3]; safener 70 g ai/ha alone): 0%
- Visual Injury (%) MOOVA Obs ([3]; safener 140 g ai/ha alone): 0%
- Visual Injury (%) MOOVA Obs ([3]; safener 280 g ai/ha alone): 0%
- ‘M202’ ORYSA Visual Injury (%) Obs ([7]; Safener Alone, 560 g ai/ha, after 3 weeks): 3.3%
- Visual Injury (%) ‘Lemont’ ORYSA Obs ([7]; 35 g ai/ha, after 3 weeks): 0%
- Visual Injury (%) ‘Lemont’ ORYSA Obs ([7]; 70 g ai/ha, after 3 weeks): 0%
- Visual Injury (%) ‘Lemont’ ORYSA Obs ([7]; 140 g ai/ha, after 3 weeks): 0%
- ORYSA Visual Injury (%) ‘Cheniere’ Obs ([7]; 140 g ai/ha): 0%
- ORYSA Visual Injury (%) ‘Clearfield’ Obs ([7]; 140 g ai/ha): 0%
- ORYSA Visual Injury (%) ‘Cocodrie’ Obs ([7]; 140 g ai/ha): 0%
- ORYSA Visual Injury (%) ‘Lemont’ Obs ([7]; 140 g ai/ha): 0%
- ORYSA Visual Injury (%) ‘M202’ Obs ([7]; 140 g ai/ha): 0%
- ORYSA Visual Injury (%) ‘Wells’ Obs ([7]; 140 g ai/ha): 0%
- Visual Injury (%) ‘Lemont’ ORYSA Obs ([7]; 280 g ae/ha, after 3 weeks): 0%
- Visual Injury (%) ‘Lemont’ ORYSA Obs ([7]; 280 g ai/ha, after 3 weeks): 0%
- ORYSA Visual Injury (%) ‘Cheniere’ Obs ([7]; 280 g ai/ha): 0%
- ORYSA Visual Injury (%) ‘Clearfield’ Obs ([7]; 280 g ai/ha): 0%
- ORYSA Visual Injury (%) ‘Cocodrie’ Obs ([7]; 280 g ai/ha): 0%
- ORYSA Visual Injury (%) ‘Lemont’ Obs ([7]; 280 g ai/ha): 0%
- ORYSA Visual Injury (%) ‘M202’ Obs ([7]; 280 g ai/ha): 0%
- ORYSA Visual Injury (%) ‘Wells’ Obs ([7]; 280 g ai/ha): 0%
- Visual Injury (%) SEBEX Obs ([8]; 35 g ai/ha): 0%
- Visual Injury (%) SEBEX Obs ([8]; 70 g ai/ha): 0%
- Visual Injury (%) SEBEX Obs ([8]; 140 g ai/ha): 0%
- Visual Injury (%) SEBEX Obs ([8]; 280 g ae/ha): 0%
- Visual Injury (%) SEBEX Obs ([8]; 280 g ai/ha): 0%

Compound: COc1c(Cl)ccc(-c2cc(N)c(Cl)c(C(=O)[O-])n2)c1F.[Na+] [Compound 1 Na + salt]
- Visual Injury (%) ECHCO Obs ([5]; 70 g ai/ha): 95%
- Visual Injury (%) CYPDI Obs ([6]; 70 g ai/ha): 95%
- Visual Injury (%) CYPDI Obs ([3]; herbicide 70 g ai/ha alone): 100%
- Visual Injury (%) MOOVA Obs ([3]; herbicide 70 g ai/ha alone): 100%
- Visual Injury (%) ‘Lemont’ ORYSA Obs ([7]; 70 g ai/ha, after 3 weeks): 50%
- Visual Injury (%) SEBEX Obs ([8]; 70 g ai/ha): 100%

Compound: CNc1cnn(-c2cccc(C(F)(F)F)c2)c(=O)c1Cl [Norflurazon]
- ORYSA Visual Injury (%) ‘M202’ Obs ([1]; partner 70 g/ha alone): 15%

Compound: COC(=O)c1c(Cl)nn(C)c1S(=O)(=O)NC(=O)Nc1nc(OC)cc(OC)n1 [Halosulfuron-methyl]
- ORYSA Visual Injury (%) ‘M202’ Obs ([1]; partner 26 g/ha alone): 0%
- ORYSA Visual Injury (%) ‘Wells’ Obs ([1]; partner 26 g/ha alone): 10%
- ORYSA Visual Injury (%) ‘M202’ Obs ([1]; partner 52 g/ha alone): 15%
